Source: ChEMBL document CHEMBL1128045, “Antifungal lipopeptides: Structure-activity relationships of 3-hydroxyglutamine-modified pneumocandin B0 derivatives” (Bioorg Med Chem Lett, 1995)
≈ marks a conversion by molar mass, not a printed value. Numbered stars: 1 amine (or outer) side, 2 acyl side, 3 side chain; on linkers, the order of the positions; unused ones are H or OH. Bridge positions count the residues as written; N and C are the ends. Square brackets hold non-standard residues; d marks the D form. Peptide text beside a SMILES is read from it. * marks the point of attachment. Orn(4R-OH,5R-OH) = O=C([C@H](C[C@@H](O)[C@@H](O)N[*:3])N[*:1])[*:2]; hTyr(3S-OH,4S-OH) = N[C@H](C(=O)O)[C@H](O)[C@@H](O)c1ccc(O)cc1; X16 = COC(=O)CCCCCNC(=O)C[C@@H](O)[C@H](N[*:1])C(=O)[*:2]; X8 = O=C(O)CCCCCNC(=O)C[C@@H](O)[C@H](N[*:1])C(=O)[*:2]; Orn(4R-OH) = O=C([C@H](C[C@@H](O)CN[*:3])N[*:1])[*:2]; X15 = NCCCCCCNC(=O)C[C@@H](O)[C@H](N[*:1])C(=O)[*:2]; X6 = C[N+](C)(C)CC[C@@H](O)[C@H](N[*:1])C(=O)[*:2]; hTyr(3R-OH) = N[C@H](C(=O)O)[C@H](O)Cc1ccc(O)cc1; X12 = CC(=O)NCC[C@@H](O)[C@H](N[*:1])C(=O)[*:2]; X11 = COC(=O)C[C@@H](O)[C@H](N[*:1])C(=O)[*:2]; X14 = NNC(=O)C[C@@H](O)[C@H](N[*:1])C(=O)[*:2]; X5 = NC(N)=NCC[C@@H](O)[C@H](N[*:1])C(=O)[*:2]; X3 = O=C(C[C@@H](O)[C@H](N[*:1])C(=O)[*:2])NO; X4 = N=C(S)C[C@@H](O)[C@H](N[*:1])C(=O)[*:2]; Gln(3R-OH) = NC(=O)C[C@@H](O)[C@H](N)C(=O)O; X13 = CNCC[C@@H](O)[C@H](N[*:1])C(=O)[*:2]; X17 = O=C([C@@H](N[*:1])[C@H](O)CCO)[*:2]; X9 = N#CC[C@@H](O)[C@H](N[*:1])C(=O)[*:2]; Orn(3R-OH) = NCC[C@@H](O)[C@H](N)C(=O)O; Pro(3S-OH) = O=C(O)[C@H]1NCC[C@@H]1O; Hyp = O=C(O)[C@@H]1C[C@@H](O)CN1; X1 = CCC(C)CC(C)CCCCCCCCC(=O)*

How the values were obtained:
[1] = target: Beta-1,3-glucan synthase (Candida albicans, UniProt O13428); assay: Tested for inhibition of Beta-1,3-glucan synthase using a crude membrane of Candida albicans (MY 1208).
[2] = test system: Candida parapsilosis; assay: In vitro Fungicidal activity (MFC) against Candida parapsilosis (MY 1010).; type: functional; settings: Lodderomyces parapsilosis
[3] = test system: Candida albicans; assay: In vitro Fungicidal activity (MFC) against Candida albicans (MY 1055).; type: functional
[4] = In vivo anti-Candida activity was determined in a mouse model of disseminated candidiasis (TOKA).; type: functional

Beta-1,3-glucan synthase, sequence (O13428 whole entry): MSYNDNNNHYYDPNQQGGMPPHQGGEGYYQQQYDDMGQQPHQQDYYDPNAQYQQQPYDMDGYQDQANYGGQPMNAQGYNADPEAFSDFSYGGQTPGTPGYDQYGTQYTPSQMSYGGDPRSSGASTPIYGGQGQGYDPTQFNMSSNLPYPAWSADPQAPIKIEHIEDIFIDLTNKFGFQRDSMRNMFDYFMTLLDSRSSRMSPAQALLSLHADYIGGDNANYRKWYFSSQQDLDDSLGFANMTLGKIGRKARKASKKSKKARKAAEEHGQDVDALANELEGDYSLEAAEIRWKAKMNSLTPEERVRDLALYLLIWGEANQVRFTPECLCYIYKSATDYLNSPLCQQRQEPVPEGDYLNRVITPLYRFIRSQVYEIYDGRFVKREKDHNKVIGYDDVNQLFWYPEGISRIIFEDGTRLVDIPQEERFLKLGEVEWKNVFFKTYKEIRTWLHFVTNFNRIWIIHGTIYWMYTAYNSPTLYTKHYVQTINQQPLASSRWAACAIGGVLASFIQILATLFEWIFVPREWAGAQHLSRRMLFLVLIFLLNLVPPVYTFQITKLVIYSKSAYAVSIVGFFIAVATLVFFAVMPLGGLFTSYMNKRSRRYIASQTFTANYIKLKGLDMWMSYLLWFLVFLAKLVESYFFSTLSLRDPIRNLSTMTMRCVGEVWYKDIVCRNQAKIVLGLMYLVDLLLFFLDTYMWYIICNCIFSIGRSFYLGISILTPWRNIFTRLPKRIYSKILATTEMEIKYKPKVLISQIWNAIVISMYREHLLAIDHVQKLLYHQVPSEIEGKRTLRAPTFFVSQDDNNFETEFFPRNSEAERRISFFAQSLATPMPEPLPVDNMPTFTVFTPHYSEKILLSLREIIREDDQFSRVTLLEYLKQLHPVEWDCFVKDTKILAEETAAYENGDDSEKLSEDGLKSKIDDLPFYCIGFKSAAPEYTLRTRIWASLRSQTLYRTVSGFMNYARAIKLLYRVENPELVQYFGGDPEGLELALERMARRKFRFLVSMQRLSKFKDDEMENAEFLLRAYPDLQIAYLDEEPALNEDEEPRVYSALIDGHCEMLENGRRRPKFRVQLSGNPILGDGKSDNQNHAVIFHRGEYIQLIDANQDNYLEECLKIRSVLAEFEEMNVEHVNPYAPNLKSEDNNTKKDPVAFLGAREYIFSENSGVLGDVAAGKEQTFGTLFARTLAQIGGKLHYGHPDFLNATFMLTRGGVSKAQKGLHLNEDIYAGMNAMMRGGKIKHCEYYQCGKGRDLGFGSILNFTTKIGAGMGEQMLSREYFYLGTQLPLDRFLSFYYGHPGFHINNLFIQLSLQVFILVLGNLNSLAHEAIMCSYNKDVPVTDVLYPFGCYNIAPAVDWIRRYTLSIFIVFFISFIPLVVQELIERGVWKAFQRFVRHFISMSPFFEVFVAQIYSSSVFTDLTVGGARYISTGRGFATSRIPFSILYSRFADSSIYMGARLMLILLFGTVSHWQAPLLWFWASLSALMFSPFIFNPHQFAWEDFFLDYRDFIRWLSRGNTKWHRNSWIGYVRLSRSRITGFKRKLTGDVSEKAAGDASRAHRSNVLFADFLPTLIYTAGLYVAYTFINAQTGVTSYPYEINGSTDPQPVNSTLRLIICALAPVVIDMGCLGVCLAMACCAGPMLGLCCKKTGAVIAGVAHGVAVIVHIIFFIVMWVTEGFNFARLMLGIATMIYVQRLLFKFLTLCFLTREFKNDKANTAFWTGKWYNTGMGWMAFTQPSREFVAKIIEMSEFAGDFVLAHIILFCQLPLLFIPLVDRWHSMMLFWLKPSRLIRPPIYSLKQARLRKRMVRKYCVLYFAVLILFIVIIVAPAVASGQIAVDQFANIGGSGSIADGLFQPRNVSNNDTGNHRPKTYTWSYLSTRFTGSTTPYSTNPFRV

CCC(C)CC(C)CCCCCCCCC(=O)N[C@H]1C[C@@H](O)CNC(=O)[C@@H]2[C@@H](O)CCN2C(=O)[C@H]([C@H](O)CC#N)NC(=O)[C@H]([C@H](O)Cc2ccc(O)cc2)NC(=O)[C@@H]2C[C@@H](O)CN2C(=O)[C@H]([C@@H](C)O)NC1=O (stereo partly drawn) (X1-[Orn(4R-OH)]T[Hyp][hTyr(3R-OH)][X9][Pro(3S-OH)]; lactam 1-C)
IC50 [1]: 100 nM
MFC [2]: 4 µg/mL (≈ 3.94 µM)
MFC [3]: 1 µg/mL (≈ 0.985 µM)

CCC(C)CC(C)CCCCCCCCC(=O)N[C@H]1C[C@@H](O)CNC(=O)[C@@H]2[C@@H](O)CCN2C(=O)[C@H]([C@H](O)CC(=O)NCCCCCC(=O)O)NC(=O)[C@H]([C@H](O)Cc2ccc(O)cc2)NC(=O)[C@@H]2C[C@@H](O)CN2C(=O)[C@H]([C@@H](C)O)NC1=O (stereo partly drawn) (X1-[Orn(4R-OH)]T[Hyp][hTyr(3R-OH)][X8][Pro(3S-OH)]; lactam 1-C)
IC50 [1]: 900 nM
MFC [2]: 64 µg/mL (≈ 55.8 µM)
MFC [3]: 2 µg/mL (≈ 1.74 µM)

CCC(C)CC(C)CCCCCCCCC(=O)N[C@H]1C[C@@H](O)[C@@H](O)NC(=O)[C@@H]2[C@@H](O)CCN2C(=O)[C@H]([C@H](O)CCNC)NC(=O)[C@H]([C@H](O)[C@@H](O)c2ccc(O)cc2)NC(=O)[C@@H]2C[C@@H](O)CN2C(=O)[C@H]([C@@H](C)O)NC1=O (stereo partly drawn) (X1-[Orn(4R-OH,5R-OH)]T[Hyp][hTyr(3S-OH,4S-OH)][X13][Pro(3S-OH)]; lactam 1-C)
IC50 [1]: 7 nM
MFC [2]: 2 µg/mL (≈ 1.88 µM)
MFC [3]: 2 µg/mL (≈ 1.88 µM)
ED99.9 [4]: 0.375 mg/kg

CCC(C)CC(C)CCCCCCCCC(=O)N[C@H]1C[C@@H](O)[C@@H](O)NC(=O)[C@@H]2[C@@H](O)CCN2C(=O)[C@H]([C@H](O)CC[N+](C)(C)C)NC(=O)[C@H]([C@H](O)[C@@H](O)c2ccc(O)cc2)NC(=O)[C@@H]2C[C@@H](O)CN2C(=O)[C@H]([C@@H](C)O)NC1=O (stereo partly drawn) (X1-[Orn(4R-OH,5R-OH)]T[Hyp][hTyr(3S-OH,4S-OH)][X6][Pro(3S-OH)]; lactam 1-C)
IC50 [1]: 9 nM
MFC [2]: 0.5 µg/mL
MFC [3]: 0.125 µg/mL
ED99.9 [4]: 0.375 mg/kg

CCC(C)CC(C)CCCCCCCCC(=O)N[C@H]1C[C@@H](O)CNC(=O)[C@@H]2[C@@H](O)CCN2C(=O)[C@H]([C@H](O)CC(=O)OC)NC(=O)[C@H]([C@H](O)Cc2ccc(O)cc2)NC(=O)[C@@H]2C[C@@H](O)CN2C(=O)[C@H]([C@@H](C)O)NC1=O (stereo partly drawn) (X1-[Orn(4R-OH)]T[Hyp][hTyr(3R-OH)][X11][Pro(3S-OH)]; lactam 1-C)
IC50 [1]: 180 nM
MFC [2]: 4 µg/mL (≈ 3.82 µM)
MFC [3]: 0.5 µg/mL (≈ 0.477 µM)
ED99.9 [4]: >6 mg/kg

CCC(C)CC(C)CCCCCCCCC(=O)N[C@H]1C[C@@H](O)CNC(=O)[C@@H]2[C@@H](O)CCN2C(=O)[C@H]([C@H](O)CCN)NC(=O)[C@H]([C@H](O)Cc2ccc(O)cc2)NC(=O)[C@@H]2C[C@@H](O)CN2C(=O)[C@H]([C@@H](C)O)NC1=O (stereo partly drawn) (X1-[Orn(4R-OH)]T[Hyp][hTyr(3R-OH)][Orn(3R-OH)][Pro(3S-OH)]; lactam 1-C)
IC50 [1]: 10 nM
MFC [3]: 0.125 µg/mL (≈ 0.123 µM)
ED99.9 [4]: 1.5 mg/kg

CCC(C)CC(C)CCCCCCCCC(=O)N[C@H]1C[C@@H](O)[C@@H](O)NC(=O)[C@@H]2[C@@H](O)CCN2C(=O)[C@H]([C@H](O)CC#N)NC(=O)[C@H]([C@H](O)[C@@H](O)c2ccc(O)cc2)NC(=O)[C@@H]2C[C@@H](O)CN2C(=O)[C@H]([C@@H](C)O)NC1=O (stereo partly drawn) (X1-[Orn(4R-OH,5R-OH)]T[Hyp][hTyr(3S-OH,4S-OH)][X9][Pro(3S-OH)]; lactam 1-C)
IC50 [1]: 100 nM
MFC [2]: 2 µg/mL (≈ 1.91 µM)
MFC [3]: 2 µg/mL (≈ 1.91 µM)

CCC(C)CC(C)CCCCCCCCC(=O)N[C@H]1C[C@@H](O)[C@@H](O)NC(=O)[C@@H]2[C@@H](O)CCN2C(=O)[C@H]([C@H](O)CCN)NC(=O)[C@H]([C@H](O)[C@@H](O)c2ccc(O)cc2)NC(=O)[C@@H]2C[C@@H](O)CN2C(=O)[C@H]([C@@H](C)O)NC1=O (stereo partly drawn) (X1-[Orn(4R-OH,5R-OH)]T[Hyp][hTyr(3S-OH,4S-OH)][Orn(3R-OH)][Pro(3S-OH)]; lactam 1-C)
IC50 [1]: 10 nM
MFC [2]: 0.5 µg/mL (≈ 0.476 µM)
MFC [3]: < 0.06 µg/mL
ED99.9 [4]: 0.375 mg/kg

CCC(C)CC(C)CCCCCCCCC(=O)N[C@H]1C[C@@H](O)[C@@H](O)NC(=O)[C@@H]2[C@@H](O)CCN2C(=O)[C@H]([C@H](O)CCN=C(N)N)NC(=O)[C@H]([C@H](O)[C@@H](O)c2ccc(O)cc2)NC(=O)[C@@H]2C[C@@H](O)CN2C(=O)[C@H]([C@@H](C)O)NC1=O (stereo partly drawn) (X1-[Orn(4R-OH,5R-OH)]T[Hyp][hTyr(3S-OH,4S-OH)][X5][Pro(3S-OH)]; lactam 1-C)
IC50 [1]: 7 nM
MFC [2]: 0.5 µg/mL (≈ 0.457 µM)
MFC [3]: < 0.06 µg/mL
ED99.9 [4]: 1.5 mg/kg

CCC(C)CC(C)CCCCCCCCC(=O)N[C@H]1C[C@@H](O)CNC(=O)[C@@H]2[C@@H](O)CCN2C(=O)[C@H]([C@H](O)CC(=O)NO)NC(=O)[C@H]([C@H](O)Cc2ccc(O)cc2)NC(=O)[C@@H]2C[C@@H](O)CN2C(=O)[C@H]([C@@H](C)O)NC1=O (stereo partly drawn) (X1-[Orn(4R-OH)]T[Hyp][hTyr(3R-OH)][X3][Pro(3S-OH)]; lactam 1-C)
IC50 [1]: 80 nM
MFC [2]: 4 µg/mL (≈ 3.81 µM)
MFC [3]: 0.25 µg/mL (≈ 0.238 µM)
ED99.9 [4]: 6 mg/kg

CCC(C)CC(C)CCCCCCCCC(=O)N[C@H]1C[C@@H](O)CNC(=O)[C@@H]2[C@@H](O)CCN2C(=O)[C@H]([C@H](O)CC(=O)NCCCCCC(=O)OC)NC(=O)[C@H]([C@H](O)Cc2ccc(O)cc2)NC(=O)[C@@H]2C[C@@H](O)CN2C(=O)[C@H]([C@@H](C)O)NC1=O (stereo partly drawn) (X1-[Orn(4R-OH)]T[Hyp][hTyr(3R-OH)][X16][Pro(3S-OH)]; lactam 1-C)
IC50 [1]: 250 nM
MFC [2]: > 128 µg/mL
MFC [3]: 4 µg/mL (≈ 3.44 µM)

CCC(C)CC(C)CCCCCCCCC(=O)N[C@H]1C[C@@H](O)CNC(=O)[C@@H]2[C@@H](O)CCN2C(=O)[C@H]([C@H](O)CCO)NC(=O)[C@H]([C@H](O)Cc2ccc(O)cc2)NC(=O)[C@@H]2C[C@@H](O)CN2C(=O)[C@H]([C@@H](C)O)NC1=O (stereo partly drawn) (X1-[Orn(4R-OH)]T[Hyp][hTyr(3R-OH)][X17][Pro(3S-OH)]; lactam 1-C)
IC50 [1]: 200 nM
MFC [2]: 8 µg/mL (≈ 7.84 µM)
MFC [3]: 1 µg/mL (≈ 0.98 µM)

CCC(C)CC(C)CCCCCCCCC(=O)N[C@H]1C[C@@H](O)CNC(=O)[C@@H]2[C@@H](O)CCN2C(=O)[C@H]([C@H](O)CC(=O)NN)NC(=O)[C@H]([C@H](O)Cc2ccc(O)cc2)NC(=O)[C@@H]2C[C@@H](O)CN2C(=O)[C@H]([C@@H](C)O)NC1=O (stereo partly drawn) (X1-[Orn(4R-OH)]T[Hyp][hTyr(3R-OH)][X14][Pro(3S-OH)]; lactam 1-C)
IC50 [1]: 110 nM
MFC [2]: 8 µg/mL (≈ 7.63 µM)
MFC [3]: 4 µg/mL (≈ 3.82 µM)

CCC(C)CC(C)CCCCCCCCC(=O)N[C@H]1C[C@@H](O)CNC(=O)[C@@H]2[C@@H](O)CCN2C(=O)[C@H]([C@H](O)CC(=O)NCCCCCCN)NC(=O)[C@H]([C@H](O)Cc2ccc(O)cc2)NC(=O)[C@@H]2C[C@@H](O)CN2C(=O)[C@H]([C@@H](C)O)NC1=O (stereo partly drawn) (X1-[Orn(4R-OH)]T[Hyp][hTyr(3R-OH)][X15][Pro(3S-OH)]; lactam 1-C)
IC50 [1]: 38 nM
MFC [3]: 0.5 µg/mL (≈ 0.442 µM)
ED99.9 [4]: >6 mg/kg

CCC(C)CC(C)CCCCCCCCC(=O)N[C@H]1C[C@@H](O)[C@@H](O)NC(=O)[C@@H]2[C@@H](O)CCN2C(=O)[C@H]([C@H](O)CCNC(C)=O)NC(=O)[C@H]([C@H](O)[C@@H](O)c2ccc(O)cc2)NC(=O)[C@@H]2C[C@@H](O)CN2C(=O)[C@H]([C@@H](C)O)NC1=O (stereo partly drawn) (X1-[Orn(4R-OH,5R-OH)]T[Hyp][hTyr(3S-OH,4S-OH)][X12][Pro(3S-OH)]; lactam 1-C)
IC50 [1]: 300 nM
MFC [2]: 8 µg/mL (≈ 7.32 µM)
MFC [3]: 4 µg/mL (≈ 3.66 µM)
ED99.9 [4]: 12 mg/kg

CCC(C)CC(C)CCCCCCCCC(=O)N[C@H]1C[C@@H](O)CNC(=O)[C@@H]2[C@@H](O)CCN2C(=O)[C@H]([C@H](O)CC(=N)S)NC(=O)[C@H]([C@H](O)Cc2ccc(O)cc2)NC(=O)[C@@H]2C[C@@H](O)CN2C(=O)[C@H]([C@@H](C)O)NC1=O (stereo partly drawn) (X1-[Orn(4R-OH)]T[Hyp][hTyr(3R-OH)][X4][Pro(3S-OH)]; lactam 1-C)
IC50 [1]: 120 nM
MFC [2]: 4 µg/mL (≈ 3.81 µM)
MFC [3]: 0.25 µg/mL (≈ 0.238 µM)
ED99.9 [4]: >6 mg/kg

CCC(C)CC(C)CCCCCCCCC(=O)N[C@H]1C[C@@H](O)[C@@H](O)NC(=O)[C@@H]2[C@@H](O)CCN2C(=O)[C@H]([C@H](O)CC(N)=O)NC(=O)[C@H]([C@H](O)[C@@H](O)c2ccc(O)cc2)NC(=O)[C@@H]2C[C@@H](O)CN2C(=O)[C@H]([C@@H](C)O)NC1=O (stereo partly drawn) (X1-[Orn(4R-OH,5R-OH)]T[Hyp][hTyr(3S-OH,4S-OH)][Gln(3R-OH)][Pro(3S-OH)]; lactam 1-C)
MFC [2]: 1 µg/mL (≈ 0.939 µM)
MFC [3]: 0.25 µg/mL (≈ 0.235 µM)
ED99.9 [4]: 6 mg/kg
